# Test system: RA
# Assay: Previous drug treatment of the same RA patients (patient history)
# Format: in vivo, human
# Settings: drug taken before the composition
row,Compound,effect in remission of the disease
1,"Cc1oncc1C(=O)Nc1ccc(C(F)(F)F)cc1 [arava, leflunomide]",without any real effect
2,CN(Cc1cnc2nc(N)nc(N)c2n1)c1ccc(C(=O)N[C@@H](CCC(=O)O)C(=O)O)cc1 [methotrexate],without any real effect
3,C[C@]12C=CC(=O)C=C1CC[C@@H]1[C@@H]2C(=O)C[C@@]2(C)[C@H]1CC[C@]2(O)C(=O)CO [prednisone],without any real effect
4,ENBREL®,without any real effect

# — patent US20160051570A1, “TREATMENT OF RHEUMATOID ARTHRITIS” (Ganderland and Associates, Inc., priority 2014, published 2016)
